Reference: PubChem BioAssay (NCI)
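1) Cells in 96-well plates. 2) Compound, 48 h, 5 concentrations. 3) Linear interpolation between surrounding doses. 4) Unreached endpoint = highest concentration. Abbreviation: GI50, concentration required for 50% inhibition of growth. TGI marks complete inhibition of growth.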 Where a SMILES comes first, the peptide text is derived from it. [ ]: non-standard residue; d: D form. pGlu = O=C1CC[CH](C(=O)O)N1

Columns and labels:
Experiment in all cases: inhibition of tumour cell growth, NCI panel, 48 h
HL-60(TB) leukemia = test system: HL-60(TB) leukemia
HOP-62 NSCLC = test system: HOP-62 NSCLC
IGROV1 ovarian = test system: IGROV1 ovarian
MOLT-4 leukemia = test system: MOLT-4 leukemia
SF-539 CNS = test system: SF-539 CNS
SW-620 colon = test system: SW-620 colon
UACC-62 melanoma = test system: UACC-62 melanoma
DU-145 prostate = test system: DU-145 prostate
MDA-MB-231 breast = test system: MDA-MB-231 breast
T-47D breast = test system: T-47D breast

Row | Structure (SMILES) | TGI (HL-60(TB) leukemia) | TGI (HOP-62 NSCLC) | TGI (IGROV1 ovarian) | TGI (MOLT-4 leukemia) | TGI (SF-539 CNS) | TGI (SW-620 colon) | TGI (UACC-62 melanoma) | GI50 (DU-145 prostate) | TGI (DU-145 prostate) | GI50 (HL-60(TB) leukemia) | GI50 (HOP-62 NSCLC) | GI50 (IGROV1 ovarian) | GI50 (MDA-MB-231 breast) | TGI (MDA-MB-231 breast) | GI50 (SW-620 colon) | GI50 (T-47D breast) | TGI (T-47D breast) | GI50 (UACC-62 melanoma) | GI50 (MOLT-4 leukemia) | GI50 (SF-539 CNS)
1 | CCCCCCCCCCCc1nnc(N)o1 | > 100 µM | > 100 µM | > 100 µM | > 100 µM | > 100 µM | > 100 µM | > 100 µM |  |  |  |  |  |  |  |  |  |  |  |  | 
2 | CCOC(=O)/C(C=Nc1ccc(-c2nc3ccccc3[nH]2)cc1)=C(/C)O | 44 µM | > 50 µM | 16.2 µM |  |  | 22.7 µM | 17.6 µM | 10.1 µM | 33.3 µM | 18.5 µM | 19.7 µM | 7.35 µM | 9.65 µM | 31.3 µM | 11.7 µM | 10.3 µM | 35.4 µM | 8.59 µM |  | 
3 | NC(=O)C(=O)N/N=C1\C(=O)N(c2ccc(Cl)cc2Cl)C(=O)C1C(=O)Nc1ccc(Cl)cc1Cl (configuration not stated) | > 100 µM | > 100 µM | > 100 µM | > 100 µM | > 100 µM | > 100 µM | > 100 µM |  |  |  |  |  |  |  |  |  |  |  |  | 
4 | Cc1cc(CC(=O)NCCO)n(CCO)c(=O)c1 | > 100 µM | > 100 µM | > 100 µM | > 100 µM | > 100 µM | > 100 µM | > 100 µM |  |  |  |  |  |  |  |  |  |  |  |  | 
5 | CNC(=O)Nc1nc2ccc([N+](=O)[O-])cc2[nH]1 | > 100 µM | > 100 µM | > 100 µM | > 100 µM | > 100 µM | > 100 µM |  |  | > 100 µM |  |  |  |  | > 100 µM |  |  | > 100 µM |  |  | 
6 | CCN(CC)c1c(C(=O)/C=C/c2ccc(Cl)cc2)c(-c2ccccc2)nn(C)c1=O | 6.46 µM | 4.26 µM | 4.21 µM | 5.06 µM |  | 4.6 µM | 3.31 µM |  |  |  |  |  |  |  |  |  |  |  |  | 
7 | N.N.N.N.N.NC(=O)c1nn[n-]n1.[Cl-].[Co+3] | > 100 µM | > 100 µM | > 100 µM | > 100 µM | > 100 µM | > 100 µM | > 100 µM |  |  | > 100 µM | > 100 µM | > 100 µM |  |  | > 100 µM |  |  | > 100 µM | > 100 µM | > 100 µM
8 | NS(=O)(=O)c1ccc(-n2nc(-c3ccc(Cl)cc3)cc2-c2cc(O)ccc2O)cc1 | 69 µM |  | > 100 µM | > 100 µM | 46.7 µM | 89.4 µM | 19.2 µM | 18.5 µM | 35.8 µM | 10 µM |  | 25.4 µM | 3.32 µM | 13.9 µM | 23.4 µM |  |  | 7.3 µM | 5.15 µM | 25.4 µM
9 | O=[N+]([O-])c1ccc(C[P+](c2ccccc2)(c2ccccc2)c2ccccc2)cc1 | > 100 µM | > 100 µM | > 100 µM | > 100 µM | > 100 µM | > 100 µM | 95.6 µM |  |  |  |  |  |  |  |  |  |  |  |  | 
10 | CC1(C)C2CCC13C(=O)C1OC3(C2)C2C(=O)c3cc4ccccc4cc3C(=O)C12 (configuration not stated) | 26.7 µM | 45.3 µM |  | 19.2 µM | 72 µM |  |  |  |  | 4.89 µM | 7.64 µM |  | 22.1 µM | 49.4 µM |  | 4.68 µM | 50.5 µM |  | 1.76 µM | 40.1 µM
11 | O=C1N(C2CCCCC2)CC12CCCCC2 | > 100 µM | > 100 µM | > 100 µM | > 100 µM | > 100 µM | > 100 µM | > 100 µM |  |  |  |  |  |  |  |  |  |  |  |  | 
12 | CC1=C(c2ccccc2)C(c2ccccc2)=C(c2ccccc2)C2(c3ccccc3)C(=O)C(C)CN12 (configuration not stated) |  | > 100 µM | > 100 µM | > 100 µM | > 100 µM | > 100 µM | > 100 µM |  |  |  |  |  |  |  |  |  |  |  |  | 
13 | CCNC(=O)C1CCCN1C(=O)C(CCCN=C(N)N)NC(=O)C(CC(C)C)NC(=O)C(CC(C)C)NC(=O)C(Cc1ccc(O)cc1)NC(=O)C(CO)NC(=O)C(Cc1c[nH]c2ccccc12)NC(=O)C(Cc1cnc[nH]1)NC(=O)C1CCC(=O)N1 (configuration not stated) ([pGlu]HWSYLLRP-NHEt; configuration not given here) | > 100 µM | > 100 µM | > 100 µM | > 100 µM | > 100 µM | > 100 µM |  | > 100 µM | > 100 µM | > 100 µM | > 100 µM | > 100 µM | > 100 µM | > 100 µM | > 100 µM | > 100 µM | > 100 µM |  | > 100 µM | > 100 µM
14 | CCOC(=O)C12CCCC1(O)N(NC(=O)OC(C)(C)C)C(C)=C2C(=O)OC (configuration not stated) | > 100 µM | > 100 µM | > 100 µM | > 100 µM | > 100 µM | > 100 µM | > 100 µM |  |  |  |  |  |  |  |  |  |  |  |  | 
15 | O=C(O)CCN(CCCCN(CCC(=O)O)CCC(=O)O)CCC(=O)O | > 100 µM | > 100 µM | > 100 µM | > 100 µM | > 100 µM | > 100 µM | > 100 µM |  |  |  |  |  |  |  |  |  |  |  |  | 
16 | COc1ccc(C(=S)N2CCN(c3cccc(C)c3)CC2)cc1OC | > 100 µM | 29.4 µM |  |  | > 100 µM | > 100 µM | > 100 µM | 4.59 µM | > 100 µM | 1.83 µM | 5.53 µM |  | 5.85 µM | > 100 µM | 3.04 µM | 4.33 µM | > 100 µM | 4.1 µM |  | 5.1 µM
17 | N.N.N.N.[Co+3].[N-]=[N+]=[N-].[N-]=[N+]=[N-].[N-]=[N+]=[N-] | > 100 µM | > 100 µM | > 100 µM | > 100 µM | > 100 µM | > 100 µM | > 100 µM |  |  | 61.5 µM | > 100 µM | > 100 µM |  |  | > 100 µM |  |  | 85.2 µM | 36 µM | 26.6 µM
18 | CCc1ccccc1NC(=O)C1=C(C)NC(C)=C(C(=O)Nc2ccccc2CC)C1c1ccccc1Cl | > 100 µM | > 100 µM | > 100 µM | > 100 µM | > 100 µM | > 100 µM |  |  |  |  |  |  |  |  |  |  |  |  |  | 
19 | O=C(O)CN(CC(=O)O)Cc1cc(C#Cc2ccc(C#Cc3ccccc3)cc2)cc(CN(CC(=O)O)CC(=O)O)n1 | > 56.7 µM | 71 µM | 78.1 µM | 53.7 µM | 59.3 µM | > 68 µM | 40.4 µM |  | > 100 µM |  |  |  |  | 43 µM |  |  |  |  |  | 
20 | Cc1cccc(/C=C/c2c(C(=O)/C=C/c3ccccc3)c(C)nc3ccccc23)c1 | 4.34 µM | 3.48 µM | 4 µM | 3.72 µM | 3.12 µM | 2.98 µM | 3.14 µM |  |  | 1.83 µM | 1.75 µM | 1.44 µM |  |  | 1.34 µM | 1.29 µM | 3.66 µM | 1.58 µM | 0.508 µM | 1.71 µM
